Results on one molecule are retold here after paper PMC10905675, “INX-315, a Selective CDK2 Inhibitor, Induces Cell Cycle Arrest and Senescence in Solid Tumors” (Cancer Discovery, 2023).

For series [1], the system named is MKN1. The experiment in a line: CellTiter Glo viability assay. The series is classed as cell-based. To be noted: Homo sapiens, MKN-1, 144 h; MKN1 gastric carcinoma, 6 days. The method, then:
(§1) An exception to this is MCF7PDRCl5-1 cells which were first cultured for 5 days without palbociclib then plated as described. MCF7PDRCl5-1 cells were treated with either a dose curve of the indicated CDK4/6i or a dose curve of INX-315 + 1 µmol/L of the indicated CDK4/6i. Cell viability was determined using the CellTiter-Glo assay (Promega, G9241) following manufacturer's instructions. Plates were processed on either BioTek Synergy2 multi-mode (Agilent) or ClarioSTAR (BMG Labtech) plate readers. T47D and MCF7 cells were seeded into […] plates using BioTek 406 (Aglient) and treated with a ten-point dose concentration from 10 µmol/L to 0.3 nmol/L of INX-315 for 2× doubling times. Plates were fixed with 4% PFA and stained with Rhodamine-Phalloidin (Bio-Trend, 00027) and DAPI (5 mg/mL, Invitrogen, catalog no. D1306). Plates were imaged using CellInsight CX7 LZR and DAPI-positive cells were counted using Thermo Fisher Scientific HCS Studio Cell Analysis Software.

Series [2] relates to all CCNE1-amplified lines. Put plainly: CellTiter Glo viability assay. The series is classed as cell-based. To be noted: 144 h. The method, then: as §1
For orientation: ATP-based viability assays read luminescence as a measure of living cells.

The test system of series [3] is palbociclib-resistant MCF7 cells. The experiment in a line: CellTiter Glo viability assay. Format: cell-based. To be noted: Homo sapiens. How it is done:
as §1

A short description of series [4]: Body weight of tumor-bearing mice. Format: in vivo. To be noted: mice treated with INX-315, CCNE1-amplified models. The method, then: (§2) PDX models were performed by Crown Biosciences (OV5398, GA0103, and GA0114) or XenoSTART (ST4316B). Tumor fragments from stock mice were harvested and implanted subcutaneously into the flank of NOD/SCID mice (OV5398, RRID:IMSR_JAX:001303), BALB/c nude mice (GA0103 and GA0114, RRID:IMSR_RJ:BALB-C-NUDE), or athymic nude mice (Crl:NU(NCr)-Foxn1nu, RRID:IMSR_CRL:490) (ST4316B). For CDX models, female athymic nude mice (Crl:NU(NCr)-Foxn1nu, RRID:IMSR_CRL:490) were inoculated with 1 × 10^7 50% Cultrex OVCAR3 cells in the flank. Experiments performed using MMTV-rtTA/tetO-HER2 mice were performed at the Peter MacCallum Cancer Centre. Tumor formation was induced and sustained in female mice with doxycycline as previously described ([33]). Randomization and treatment in all models began when median tumor volume reached a maximum of 300 mm^3.
Mice were treated via oral gavage. INX-315 was prepared weekly in 100% PEG400; abemaciclib was prepared as previously described ([33]) and ribociclib (Selleckchem, S7440) was prepared weekly in 0.5% methyl cellulose. To generate abemaciclib-resistant MMTV-rtTA/tetO-HER2 tumors, mice were treated continuously with abemaciclib at a dose of 75 mg/kg until tumors resumed growth as described in text. […]

In series [5] the test system is ST4316B PDX. The experiment in a line: PDX tumor growth. The series is classed as in vivo, mice. To be noted: monotherapy; ribociclib 50 mg/kg per day. How it is done: as §2
(§3) Mice were treated via oral gavage. INX-315 was prepared weekly in 100% PEG400; abemaciclib was prepared as previously described ([33]) and ribociclib (Selleckchem, S7440) was prepared weekly in 0.5% methyl cellulose. To generate abemaciclib-resistant MMTV-rtTA/tetO-HER2 tumors, mice were treated continuously with abemaciclib at a dose of 75 mg/kg until tumors resumed growth as described in text. At this point and in all other MMTV-rtTA/tetO-HER2 mice experiments, mice were randomized into treatment groups and abemaciclib was administered to indicated groups at a dose of 50 mg/kg. In all MMTV-rtTA/tetO-HER2 mice experiments, INX-315 was administered at a dose of 50 mg/kg twice daily. For PDX model ST4316B, ribociclib was administered at 50 mg/kg per day.

For series [6], the system named is gastric adenocarcinoma PDX GA0103. Put plainly: PDX tumor growth. The series is classed as in vivo, mice. To be noted: oral gavage, 56 days. The method, then: as §2, §3
The subject of series [7] is gastric adenocarcinoma PDX GA0114. The experiment in a line: PDX tumor growth. The series is classed as in vivo, mice. To be noted: 100 mg/kg twice daily, 5-week experiment. How it is done: as §2, §3
For series [8], the target named is T1, SPHK1 (Homo sapiens, UniProt Q9NYA1).
T1 construct: purchased Thermo Fisher Scientific SelectScreen (plus Nanosyn / Reaction Biology for CDK/cyclin lines)
T1 sequence (Q9NYA1 whole entry): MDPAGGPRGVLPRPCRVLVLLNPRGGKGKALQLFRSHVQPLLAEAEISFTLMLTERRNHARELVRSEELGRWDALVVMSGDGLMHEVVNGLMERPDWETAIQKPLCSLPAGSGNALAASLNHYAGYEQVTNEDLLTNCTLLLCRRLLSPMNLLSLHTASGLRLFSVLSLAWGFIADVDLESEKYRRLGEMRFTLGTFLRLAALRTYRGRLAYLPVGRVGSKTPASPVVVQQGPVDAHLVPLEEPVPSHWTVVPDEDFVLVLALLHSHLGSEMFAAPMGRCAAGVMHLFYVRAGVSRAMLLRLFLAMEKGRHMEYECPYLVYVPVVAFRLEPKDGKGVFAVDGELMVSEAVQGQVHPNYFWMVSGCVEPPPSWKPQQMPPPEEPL
Put plainly: SelectScreen Adapta. The series is classed as biochemical. To be noted: INX-0315 at 100nM. The text has this: (§4) INX-315 was first evaluated in the SelectScreen Biochemical Kinase Profiling at Thermo Fisher Scientific (Madison, WI). The primary screen consisted of INX-315 dosed at a single concentration of 100 nmol/L in 1% DMSO across each platform within the SelectScreen array of assays, LanthaScreen Eu Kinase Binding Assay; AdaptaScreen; and Z'LyteScreen using preestablished conditions at Thermo Fisher Scientific as shown in Supplementary Table S2. […] The follow-up screen consisted of 10-point dose–response curves for INX-315 from 1 µmol/L to 0.0495 nmol/L.

Series [9] deals with T2, CDK7/cyclin H/MNAT1 (Homo sapiens, UniProt P50613).
T2 construct: purchased Thermo Fisher Scientific SelectScreen (plus Nanosyn / Reaction Biology for CDK/cyclin lines)
T2 sequence (P50613 whole entry): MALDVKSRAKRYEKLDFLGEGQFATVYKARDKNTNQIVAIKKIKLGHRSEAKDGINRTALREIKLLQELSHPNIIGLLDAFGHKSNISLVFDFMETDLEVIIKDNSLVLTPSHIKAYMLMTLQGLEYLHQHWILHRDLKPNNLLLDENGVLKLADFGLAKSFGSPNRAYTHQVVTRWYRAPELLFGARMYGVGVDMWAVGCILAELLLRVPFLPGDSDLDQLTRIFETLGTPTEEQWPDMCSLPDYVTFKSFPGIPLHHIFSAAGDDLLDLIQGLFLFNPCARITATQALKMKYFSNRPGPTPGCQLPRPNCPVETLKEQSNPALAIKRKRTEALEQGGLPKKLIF
T2 sequence (P51946 whole entry partner): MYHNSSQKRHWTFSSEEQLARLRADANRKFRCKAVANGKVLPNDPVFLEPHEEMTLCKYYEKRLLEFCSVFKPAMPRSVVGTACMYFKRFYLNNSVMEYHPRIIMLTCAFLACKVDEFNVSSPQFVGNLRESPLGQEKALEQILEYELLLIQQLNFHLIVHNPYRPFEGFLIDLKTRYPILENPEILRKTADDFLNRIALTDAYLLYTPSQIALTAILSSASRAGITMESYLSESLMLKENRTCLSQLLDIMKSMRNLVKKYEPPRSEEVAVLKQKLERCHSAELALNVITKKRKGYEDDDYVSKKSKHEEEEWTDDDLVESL
T2 sequence (P51948 whole entry partner): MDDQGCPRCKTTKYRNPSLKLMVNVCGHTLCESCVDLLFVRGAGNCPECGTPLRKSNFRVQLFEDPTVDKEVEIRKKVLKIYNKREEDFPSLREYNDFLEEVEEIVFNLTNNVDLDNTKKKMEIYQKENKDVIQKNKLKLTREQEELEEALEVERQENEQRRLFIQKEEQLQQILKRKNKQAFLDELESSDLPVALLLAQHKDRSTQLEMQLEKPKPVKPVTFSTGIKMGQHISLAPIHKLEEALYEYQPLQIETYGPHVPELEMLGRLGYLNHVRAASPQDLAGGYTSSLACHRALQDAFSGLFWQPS
The experiment in a line: SelectScreen Adapta. Format: biochemical. To be noted: INX-0315 at 100nM.
Source text: as §4

Series [10] has as its target T3, GSG2 (Haspin) (Homo sapiens, UniProt Q8TF76).
T3 construct: purchased Thermo Fisher Scientific SelectScreen (plus Nanosyn / Reaction Biology for CDK/cyclin lines)
The experiment in a line: SelectScreen Adapta. To be noted: INX-0315 at 100nM. Format: biochemical.
Source text: as §4

The target in series [11] is T4, PIK3C3 (hVPS34) (Homo sapiens, UniProt Q8NEB9).
T4 construct: purchased Thermo Fisher Scientific SelectScreen (plus Nanosyn / Reaction Biology for CDK/cyclin lines)
The experiment in a line: SelectScreen Adapta. To be noted: INX-0315 at 100nM. Format: biochemical.
Source text: as §4

In series [12] the target is T5, PIK3CB/PIK3R2 (p110 beta/p85 beta) (Homo sapiens, UniProt P42338).
T5 construct: purchased Thermo Fisher Scientific SelectScreen (plus Nanosyn / Reaction Biology for CDK/cyclin lines)
The experiment in a line: SelectScreen Adapta. Format: biochemical. To be noted: INX-0315 at 100nM.
Source text: as §4

Series [13] addresses T6, PIK3CG (p110 gamma) (Homo sapiens, UniProt P48736).
T6 construct: purchased Thermo Fisher Scientific SelectScreen (plus Nanosyn / Reaction Biology for CDK/cyclin lines)
The experiment in a line: SelectScreen Adapta. The series is classed as biochemical. To be noted: INX-0315 at 100nM.
Source text: as §4

In series [14] the target is T7, LRRK2 G2019S FL (Homo sapiens, UniProt Q5S007, G2019S).
T7 construct: purchased Thermo Fisher Scientific SelectScreen (plus Nanosyn / Reaction Biology for CDK/cyclin lines)
T7 sequence (Q5S007 whole entry G2019S): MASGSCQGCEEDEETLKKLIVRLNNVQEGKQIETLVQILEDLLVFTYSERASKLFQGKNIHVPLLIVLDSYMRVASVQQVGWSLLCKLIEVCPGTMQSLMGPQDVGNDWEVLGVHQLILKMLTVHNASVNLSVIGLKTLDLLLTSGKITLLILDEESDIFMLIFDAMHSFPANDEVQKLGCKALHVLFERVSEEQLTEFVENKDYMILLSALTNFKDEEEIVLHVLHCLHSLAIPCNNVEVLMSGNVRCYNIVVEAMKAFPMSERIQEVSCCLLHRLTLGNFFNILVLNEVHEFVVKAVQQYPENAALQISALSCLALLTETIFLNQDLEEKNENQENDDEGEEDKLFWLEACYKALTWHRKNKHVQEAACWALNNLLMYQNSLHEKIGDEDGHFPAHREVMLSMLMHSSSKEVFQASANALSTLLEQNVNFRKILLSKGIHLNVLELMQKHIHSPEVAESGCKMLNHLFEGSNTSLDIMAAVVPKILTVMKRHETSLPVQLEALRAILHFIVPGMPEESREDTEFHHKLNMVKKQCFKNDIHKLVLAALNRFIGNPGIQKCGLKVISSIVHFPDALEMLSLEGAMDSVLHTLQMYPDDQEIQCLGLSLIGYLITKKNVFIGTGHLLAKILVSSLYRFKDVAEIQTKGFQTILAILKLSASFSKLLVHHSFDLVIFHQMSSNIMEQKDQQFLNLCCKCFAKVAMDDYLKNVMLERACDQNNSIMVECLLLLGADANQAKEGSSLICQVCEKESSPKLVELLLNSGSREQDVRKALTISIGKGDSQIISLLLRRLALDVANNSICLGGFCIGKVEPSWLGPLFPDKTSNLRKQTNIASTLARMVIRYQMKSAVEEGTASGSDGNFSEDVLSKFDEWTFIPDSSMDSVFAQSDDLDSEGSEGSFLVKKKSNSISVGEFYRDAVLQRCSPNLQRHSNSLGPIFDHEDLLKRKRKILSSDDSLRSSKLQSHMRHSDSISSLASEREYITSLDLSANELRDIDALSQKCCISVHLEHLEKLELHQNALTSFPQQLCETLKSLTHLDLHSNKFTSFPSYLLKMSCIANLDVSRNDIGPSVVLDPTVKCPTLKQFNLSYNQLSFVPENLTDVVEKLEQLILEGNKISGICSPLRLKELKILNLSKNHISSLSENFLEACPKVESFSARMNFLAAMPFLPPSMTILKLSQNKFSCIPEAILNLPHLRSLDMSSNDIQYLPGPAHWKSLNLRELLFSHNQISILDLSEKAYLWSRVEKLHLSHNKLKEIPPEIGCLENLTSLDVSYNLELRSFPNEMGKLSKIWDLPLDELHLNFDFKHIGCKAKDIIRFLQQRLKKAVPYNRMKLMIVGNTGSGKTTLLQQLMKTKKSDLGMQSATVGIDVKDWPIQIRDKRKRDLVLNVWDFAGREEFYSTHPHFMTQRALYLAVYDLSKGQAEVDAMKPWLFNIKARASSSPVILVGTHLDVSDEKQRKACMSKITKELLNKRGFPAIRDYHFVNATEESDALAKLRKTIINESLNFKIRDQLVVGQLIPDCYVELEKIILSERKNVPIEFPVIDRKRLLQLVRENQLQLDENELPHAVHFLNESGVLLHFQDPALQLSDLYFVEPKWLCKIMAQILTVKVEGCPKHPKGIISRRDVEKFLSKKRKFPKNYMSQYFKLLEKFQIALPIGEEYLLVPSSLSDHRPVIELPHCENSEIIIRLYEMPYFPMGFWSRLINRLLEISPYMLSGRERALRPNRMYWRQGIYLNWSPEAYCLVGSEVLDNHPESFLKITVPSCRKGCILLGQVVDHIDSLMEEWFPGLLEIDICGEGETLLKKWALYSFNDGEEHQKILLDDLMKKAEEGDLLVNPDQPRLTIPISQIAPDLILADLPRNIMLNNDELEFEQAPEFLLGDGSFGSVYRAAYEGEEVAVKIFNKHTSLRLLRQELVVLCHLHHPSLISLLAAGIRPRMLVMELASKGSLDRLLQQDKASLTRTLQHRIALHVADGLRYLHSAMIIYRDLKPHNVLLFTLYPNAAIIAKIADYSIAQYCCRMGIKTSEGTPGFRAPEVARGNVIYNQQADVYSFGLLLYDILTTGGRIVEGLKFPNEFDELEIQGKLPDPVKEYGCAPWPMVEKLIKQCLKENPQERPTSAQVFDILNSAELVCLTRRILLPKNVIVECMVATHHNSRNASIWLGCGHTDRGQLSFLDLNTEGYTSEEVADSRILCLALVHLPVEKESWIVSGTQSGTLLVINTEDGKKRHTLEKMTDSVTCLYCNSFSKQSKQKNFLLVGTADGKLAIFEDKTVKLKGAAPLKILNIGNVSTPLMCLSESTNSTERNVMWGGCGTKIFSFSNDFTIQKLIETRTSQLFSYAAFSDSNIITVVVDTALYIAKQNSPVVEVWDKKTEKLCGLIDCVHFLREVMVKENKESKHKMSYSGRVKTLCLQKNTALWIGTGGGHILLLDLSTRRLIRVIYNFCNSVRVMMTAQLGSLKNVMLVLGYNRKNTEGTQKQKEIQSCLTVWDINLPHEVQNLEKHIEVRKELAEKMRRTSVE
The experiment in a line: SelectScreen Adapta. To be noted: INX-0315 at 100nM. Format: biochemical.
Source text: as §4

Read-outs that look alike come from different tables or passages of the source.

T6 sequence (P48736 whole entry): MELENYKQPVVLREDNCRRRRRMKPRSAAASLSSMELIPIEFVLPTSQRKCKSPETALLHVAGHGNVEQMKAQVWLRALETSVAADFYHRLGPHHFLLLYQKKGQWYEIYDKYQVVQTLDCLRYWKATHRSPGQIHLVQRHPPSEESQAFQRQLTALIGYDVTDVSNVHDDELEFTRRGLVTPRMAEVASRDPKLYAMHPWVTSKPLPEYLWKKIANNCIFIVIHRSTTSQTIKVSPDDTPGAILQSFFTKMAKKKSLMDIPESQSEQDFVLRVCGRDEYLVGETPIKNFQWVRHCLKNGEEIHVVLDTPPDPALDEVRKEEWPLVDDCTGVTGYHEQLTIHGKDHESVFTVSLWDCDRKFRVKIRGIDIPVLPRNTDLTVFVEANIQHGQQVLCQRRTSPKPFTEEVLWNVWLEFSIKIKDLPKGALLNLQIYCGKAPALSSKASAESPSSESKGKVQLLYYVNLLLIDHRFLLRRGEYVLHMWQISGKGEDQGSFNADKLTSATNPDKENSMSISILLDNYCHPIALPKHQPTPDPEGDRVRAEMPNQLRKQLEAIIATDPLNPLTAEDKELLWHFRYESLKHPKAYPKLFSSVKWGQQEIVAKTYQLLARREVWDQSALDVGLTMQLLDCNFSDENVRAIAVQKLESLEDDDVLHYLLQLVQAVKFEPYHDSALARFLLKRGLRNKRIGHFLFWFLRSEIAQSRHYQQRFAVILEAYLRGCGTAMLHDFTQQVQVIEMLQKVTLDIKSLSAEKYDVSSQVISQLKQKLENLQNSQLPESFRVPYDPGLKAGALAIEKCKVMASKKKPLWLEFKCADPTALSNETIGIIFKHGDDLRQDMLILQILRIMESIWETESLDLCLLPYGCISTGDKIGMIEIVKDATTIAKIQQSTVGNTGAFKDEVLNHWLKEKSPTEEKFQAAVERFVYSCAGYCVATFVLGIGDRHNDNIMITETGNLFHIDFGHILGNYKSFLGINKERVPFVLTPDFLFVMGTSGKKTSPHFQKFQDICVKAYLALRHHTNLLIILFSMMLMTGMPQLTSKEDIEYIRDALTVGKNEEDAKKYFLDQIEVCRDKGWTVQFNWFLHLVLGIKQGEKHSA

`NS(=O)(=O)c1ccc(Nc2ncc3cc4n(c3n2)C2(CCCCC2)C(=O)NN4)cc1` [INX-315]: the IC50 (as a rule, the concentration needed to halve the response being measured) in series [1] was 44 nM; in [2], 36 nM; in series [3] (MCF7, Supp Fig S9D, DMSO + INX-315, read-out: INX-315 IC50), 906 nM; in [3] (MCF7, cultured out of CDK4/6i, read-out: IC50 to INX-315), less than 900 nM; in [3] (MCF7, with abemaciclib (1 µmol/L), read-out: IC50 to INX-315), 28 nM; in series [3] (MCF7, with lerociclib (1 µmol/L), read-out: IC50 to INX-315), 23 nM. Besides, in [3] (MCF7, with palbociclib (1 µmol/L), read-out: IC50 to INX-315), the half-inhibitory concentration (IC50) turned out to be 14 nM. In addition, the “loss of body weight during the studies” value in series [4] was no more than 5%. Besides, the tumor growth result was “slowed tumor growth modestly” in series [5]; “tumor regression” in series [6] (100 mg/kg twice daily); “significant growth inhibition” in series [6] (all other treatment groups: 25, 50 mg/kg twice daily, 100 mg/kg once a day); “significantly inhibited” in series [7]. Also, the inhibition (commonly the drop in the measured response relative to a control, in per cent) at 0.1 µM is -15% in series [8]; -3% in [9]; 4% in series [10]; 7% in series [11]; -14% in series [12]; -8% in series [13]. The inhibition at 0.1 µM in series [14] is 40%.
